# Experimental data as given in paper PMC12064818, “A general assay platform to study protein pharmacology using ligand-dependent structural dynamics” (Nature Communications, 2025).
# What was measured:
# NLuc = biological target: T1, NLuc (Oplophorus gracilirostris, UniProt Q9GV45, A31E/A60N/A81I/F95D/I117V/K70R/L54V/L99Q/M102K/N193R/P142E/Q151K/Q38R/Q45L/V71I/Y165I); type: biochemical; conditions: ±ATP
# T1 construct: His tag (inferred from IMAC purification); made in house; host or cells: E. coli
# How it was run: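 Luminescence was read 10 min after Nano-Glo reagent addition. Enzyme was 1 nM NLuc in PBS/0.05% IGEPAL buffer, with or without ATP.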
# [1] = biological target: FLuc-C-NLuc (firefly luciferase) (Photinus pyralis, UniProt P08659, form not given/L550V); assay: SDR assay, FLuc-C-NLuc; conditions: for SDR + 10 mM ATP / SDR No ATP: 1 nM FLuc-C-NLuc, normalized activity, Log [Compound]; for SDR+ATP / SDR: Log[Compound]; for SDR+ATP: 10 mM ATP; for SDR: absence of ATP
# FLuc-C-NLuc (firefly luciferase), sequence (P08659 2-550 L550V, form open): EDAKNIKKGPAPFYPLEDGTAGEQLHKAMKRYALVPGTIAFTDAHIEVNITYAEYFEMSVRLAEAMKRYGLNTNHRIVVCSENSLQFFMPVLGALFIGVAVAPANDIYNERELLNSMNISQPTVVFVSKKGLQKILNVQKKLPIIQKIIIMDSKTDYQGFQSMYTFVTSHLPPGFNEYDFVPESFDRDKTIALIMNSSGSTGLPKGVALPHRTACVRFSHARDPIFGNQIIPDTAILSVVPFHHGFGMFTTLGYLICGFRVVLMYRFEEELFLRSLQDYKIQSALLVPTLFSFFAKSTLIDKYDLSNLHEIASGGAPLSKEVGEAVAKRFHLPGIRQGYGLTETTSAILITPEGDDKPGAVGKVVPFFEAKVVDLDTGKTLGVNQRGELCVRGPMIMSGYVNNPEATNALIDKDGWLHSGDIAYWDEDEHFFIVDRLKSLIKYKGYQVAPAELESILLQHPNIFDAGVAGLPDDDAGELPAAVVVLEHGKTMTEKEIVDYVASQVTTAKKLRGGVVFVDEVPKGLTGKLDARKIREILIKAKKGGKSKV
# T1 sequence (Q9GV45 other isoform, or with tags, fused parts or gaps with the stated changes): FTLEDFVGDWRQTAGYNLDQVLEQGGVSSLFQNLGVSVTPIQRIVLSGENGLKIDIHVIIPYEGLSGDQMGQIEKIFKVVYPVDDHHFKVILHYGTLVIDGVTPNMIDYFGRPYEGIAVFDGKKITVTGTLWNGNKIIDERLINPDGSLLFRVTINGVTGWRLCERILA
compound,measurement,setting,value
Nc1ncnc2c1ncn2[C@@H]1O[C@H](COP(=O)(O)OP(=O)(O)OP(=O)(O)O)[C@@H](O)[C@H]1O [ATP],effect on NLuc activity (in words),NLuc,no effect on NLuc activity
CC(CNC(=O)C1CCN(C(=O)c2ncn3c2COC(c2ccccc2)C3)CC1)c1ccccc1 (centres unmarked) [compound 00449795],SDR + 10 mM ATP,[1]; M -4.48,34.2
same,SDR No ATP,[1]; M -4.48,-1.4
same,SDR + 10 mM ATP,[1]; M -4.96,33.8
same,SDR No ATP,[1]; M -4.96,-2.1
same,SDR + 10 mM ATP,[1]; M -5.44,30.7
same,SDR No ATP,[1]; M -5.44,-1.5
same,SDR + 10 mM ATP,[1]; M -5.91,28.0
same,SDR No ATP,[1]; M -5.91,-3.2
same,SDR + 10 mM ATP,[1]; M -6.39,22.7
same,SDR No ATP,[1]; M -6.39,-2.0
same,SDR + 10 mM ATP,[1]; M -6.87,5.0
same,SDR No ATP,[1]; M -6.87,-1.8
same,SDR + 10 mM ATP,[1]; M -7.35,2.2
same,SDR No ATP,[1]; M -7.35,-2.1
same,SDR + 10 mM ATP,[1]; M -7.82,-0.7
same,SDR No ATP,[1]; M -7.82,-1.8
same,SDR + 10 mM ATP,[1]; M -8.30,-0.9
same,SDR No ATP,[1]; M -8.30,-1.6
same,SDR + 10 mM ATP,[1]; M -8.78,-2.4
same,SDR No ATP,[1]; M -8.78,-2.4
same,Efficacy (%) FLuc-C-NLuc SDR (-ATP),[1]; - ATP,0.00%
same,SDR+ATP,[1]; M -4.48,68.61
same,SDR,[1]; M -4.48,10.53
same,SDR+ATP,[1]; M -4.96,61.30
same,SDR,[1]; M -4.96,11.57
same,SDR+ATP,[1]; M -5.44,53.17
same,SDR,[1]; M -5.44,11.00
same,SDR+ATP,[1]; M -5.91,34.17
same,SDR,[1]; M -5.91,13.65
same,SDR+ATP,[1]; M -6.39,20.63
same,SDR,[1]; M -6.39,10.99
same,SDR+ATP,[1]; M -6.87,11.14
same,SDR,[1]; M -6.87,10.66
same,SDR+ATP,[1]; M -7.35,7.50
same,SDR,[1]; M -7.35,9.25
same,SDR+ATP,[1]; M -7.82,9.96
same,SDR,[1]; M -7.82,13.35
same,SDR+ATP,[1]; M -8.30,8.11
same,SDR,[1]; M -8.30,10.95
same,SDR+ATP,[1]; M -8.78,7.12
same,SDR,[1]; M -8.78,11.55
same,SDR+ATP,[1]; M -9.25,7.93
same,SDR,[1]; M -9.25,9.61
